Experimental data: patent US12077503B2, “Substituted cyclic amides and their use as herbicides” (FMC CORPORATION, priority 2015, dated 2024)

Key:
Format in all cases: in vivo
[1] = tested on: pigweed (Amaranthus retroflexus); test: Test A preemergence; settings: Amaranthus retroflexus, pre-emergence, 240 h
[2] = tested on: ragweed (common ragweed, Ambrosia elatior); test: Test A preemergence; settings: Ambrosia artemisiifolia, pre-emergence, 240 h
Method in brief: (§1)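 Visual injury, scored on a 0–100 scale relative to untreated controls, was recorded about 10 d after application. Treatments were a preemergence soil spray over planted seeds or a postemergence spray on plants at the one- to two-leaf stage, 2 to 10 cm tall, all in loam soil–sand blend in the greenhouse.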

[3] = tested on: barnyardgrass (Echinochloa crus-galli); test: Test A preemergence; settings: Echinochloa crus-galli, pre-emergence, 240 h
Method in brief: as §1

Kochia (Kochia scoparia) [4] = test: Test A preemergence; settings: Bassia scoparia, pre-emergence, 240 h
Method in brief: as §1

[5] = tested on: ryegrass, Italian (Italian ryegrass, Lolium multiflorum); test: Test A preemergence; settings: Lolium multiflorum, pre-emergence, 240 h
Method in brief: as §1

[6] = tested on: pigweed (Amaranthus retroflexus); test: Test A postemergence; settings: Amaranthus retroflexus, post-emergence, 240 h, postemergence, approx. 10 d
Method in brief: as §1

[7] = tested on: ragweed (common ragweed, Ambrosia elatior); test: Test A postemergence; settings: Ambrosia artemisiifolia, post-emergence, 240 h, postemergence, approx. 10 d
Method in brief: as §1

[8] = tested on: barnyardgrass (Echinochloa crus-galli); test: Test A postemergence; settings: Echinochloa crus-galli, post-emergence, 240 h, read-out: Plant response rating, Barnyardgrass
Method in brief: as §1

corn (Zea mays) = test: Test A postemergence; settings: Zea mays, post-emergence, 240 h
Method in brief: as §1

[9] = tested on: wheat (Triticum aestivum); test: Test A postemergence; settings: Triticum aestivum, post-emergence, 240 h, postemergence, approx. 10 d
Method in brief: as §1

[10] = tested on: blackgrass (Alopecurus myosuroides); test: Test A postemergence; settings: Alopecurus myosuroides, post-emergence, 240 h, read-out: Plant response rating, Blackgrass
Method in brief: as §1

[11] = tested on: Galium (catchweed bedstraw, Galium aparine); test: Test A postemergence; settings: Galium, post-emergence, 240 h, postemergence, approx. 10 d
Method in brief: as §1

Kochia (Kochia scoparia) [12] = test: Test A postemergence; settings: Bassia scoparia, post-emergence, 240 h, postemergence, approx. 10 d
Method in brief: as §1

[13] = tested on: giant foxtail (Setaria faberii); test: Test A postemergence; settings: Setaria faberi, post-emergence, 240 h, postemergence, approx. 10 d
Method in brief: as §1

[14] = tested on: ryegrass, Italian (Italian ryegrass, Lolium multiflorum); test: Test A postemergence; settings: Lolium multiflorum, post-emergence, 240 h, postemergence, approx. 10 d
Method in brief: as §1

[15] = 125 g ai/ha, Postemergence, visual injury after approximately 10 d, 0 to 100 scale where 0 is no effect and 100 is complete control
[16] = 500 g ai/ha, postemergence, visual injury, 0 to 100 scale (0 no effect, 100 complete control), approx. 10 d

Compound `CN1CC[C@H](c2ccccc2)[C@@H](C(=O)Nc2ccccc2F)C1=O` [Compound 1032] has a pest or weed control at 125 g/ha ([1]; 125 g ai/ha, Preemergence, visual injury rating after approximately 10 d, read-out: Pigweed plant response rating (0 to 100 scale, 0 is no effect, 100 is complete control)) of 0%, a pest or weed control at 500 g/ha ([1]; 500 g ai/ha, preemergence, visual injury rating about 10 d after treatment, 0 to 100 scale (0 no effect, 100 complete control), read-out: Pigweed plant response rating) of 0% and a pest or weed control at 125 g/ha ([2]; 125 g ai/ha, Preemergence, visual injury rating after approximately 10 d, read-out: Ragweed plant response rating (0 to 100 scale, 0 is no effect, 100 is complete control)) of 0%. The pest or weed control at 500 g/ha ([2]; 500 g ai/ha, preemergence, visual injury rating about 10 d after treatment, 0 to 100 scale (0 no effect, 100 complete control), read-out: Ragweed plant response rating) was 0%, the pest or weed control at 125 g/ha ([3]; 125 g ai/ha, Preemergence, visual injury rating after approximately 10 d, read-out: Barnyardgrass plant response rating (0 to 100 scale, 0 is no effect, 100 is complete control)) was 20% and the pest or weed control at 500 g/ha ([3]; 500 g ai/ha, preemergence, visual injury rating about 10 d after treatment, 0 to 100 scale (0 no effect, 100 complete control), read-out: Barnyardgrass plant response rating) was 70%. It also gave a pest or weed control at 125 g/ha (Kochia (Kochia scoparia) [4]; 125 g ai/ha, Preemergence, visual injury rating after approximately 10 d, read-out: Kochia plant response rating (0 to 100 scale, 0 is no effect, 100 is complete control)) of 0%, a pest or weed control at 500 g/ha (Kochia (Kochia scoparia) [4]; 500 g ai/ha, preemergence, visual injury rating about 10 d after treatment, 0 to 100 scale (0 no effect, 100 complete control), read-out: Kochia plant response rating) of 0% and a pest or weed control at 125 g/ha ([5]; 125 g ai/ha, Preemergence, visual injury rating after approximately 10 d, read-out: Ryegrass, Italian plant response rating (0 to 100 scale, 0 is no effect, 100 is complete control)) of 0%. The pest or weed control at 500 g/ha ([5]; 500 g ai/ha, preemergence, visual injury rating about 10 d after treatment, 0 to 100 scale (0 no effect, 100 complete control), read-out: Ryegrass, Italian plant response rating) was 0%, the pest or weed control at 125 g/ha ([6]; 125 g ai/ha, visual injury on 0 to 100 scale (0 no effect, 100 complete control), read-out: Pigweed plant response rating) was 0% and the pest or weed control at 500 g/ha ([6]; 500 g ai/ha, visual injury, 0 to 100 scale (0 no effect, 100 complete control), read-out: Plant response rating, Pigweed) was 0%. The pest or weed control at 125 g/ha ([7]; 125 g ai/ha, visual injury on 0 to 100 scale (0 no effect, 100 complete control), read-out: Ragweed plant response rating) was 0%, the pest or weed control at 500 g/ha ([7]; 500 g ai/ha, visual injury, 0 to 100 scale (0 no effect, 100 complete control), read-out: Plant response rating, Ragweed) was 0% and the pest or weed control at 125 g/ha [8, 15] was 0%. For the same compound, the pest or weed control at 500 g/ha [8, 16] was 0%, the Corn plant response rating (crop injury, 0 = no effect, 100 = complete kill) at 125 g/ha (corn (Zea mays); [15]) was 0% and the Corn plant response rating (crop injury, 0 = no effect, 100 = complete kill) at 500 g/ha (corn (Zea mays); [16]) was 0%. It also gave a plant injury at 125 g/ha ([9]; 125 g ai/ha, visual injury on 0 to 100 scale (0 no effect, 100 complete control), read-out: Wheat plant response rating) of 0%, a plant injury at 500 g/ha ([9]; 500 g ai/ha, visual injury, 0 to 100 scale (0 no effect, 100 complete control), read-out: Plant response rating, Wheat) of 0% and a pest or weed control at 125 g/ha [10, 15] of 0%. For the same compound, the pest or weed control at 500 g/ha [10, 16] was 0%, the pest or weed control at 125 g/ha ([11]; 125 g ai/ha, visual injury on 0 to 100 scale (0 no effect, 100 complete control), read-out: Galium plant response rating) was 0% and the pest or weed control at 500 g/ha ([11]; 500 g ai/ha, visual injury, 0 to 100 scale (0 no effect, 100 complete control), read-out: Plant response rating, Galium) was 0%. It also gave a pest or weed control at 125 g/ha (Kochia (Kochia scoparia) [12]; 125 g ai/ha, visual injury on 0 to 100 scale (0 no effect, 100 complete control), read-out: Kochia plant response rating) of 0%, a pest or weed control at 500 g/ha (Kochia (Kochia scoparia) [12]; 500 g ai/ha, visual injury, 0 to 100 scale (0 no effect, 100 complete control), read-out: Plant response rating, Kochia) of 0% and a pest or weed control at 125 g/ha ([13]; 125 g ai/ha, visual injury on 0 to 100 scale (0 no effect, 100 complete control), read-out: Foxtail, Giant plant response rating) of 0%. For the same compound, the pest or weed control at 500 g/ha ([13]; 500 g ai/ha, visual injury, 0 to 100 scale (0 no effect, 100 complete control), read-out: Plant response rating, Foxtail, Giant) was 0%, the pest or weed control at 125 g/ha ([14]; 125 g ai/ha, visual injury on 0 to 100 scale (0 no effect, 100 complete control), read-out: Ryegrass, Italian plant response rating) was 0% and the pest or weed control at 500 g/ha ([14]; 500 g ai/ha, visual injury, 0 to 100 scale (0 no effect, 100 complete control), read-out: Plant response rating, Ryegrass, Italian) was 0%.
